Source: US20220347306A1, “SELECTIVE DELIVERY OF THERAPEUTIC AND IMAGING AGENTS” (priority 2018, published 2022)

Assays:
[1] = Body weight (tolerability and toxicity) in human HT1080 fibrosarcoma xenograft model; conditions: 1 mg/kg of the cytotoxic agent component, IV on days 0 and 3
Experimental: (§1) Female athymic nude mice (8-10 weeks old) purchased from Charles River (Wilmington, 01887, MA) were used after 4-7 day of acclimatization period. […] Human fibrosarcoma tumor cells from ATCC (CCL-121™) were grown using standard cell culture techniques. Tumor cells (1×10^8 tumor cells/mL) were suspended in DPBS/Matrigel™ (1:1 vol) and implanted subcutaneously (50 μL tumor cell suspension/mouse) into the upper mammary fat pad or right flank of mice with individual identification number (ear tag). Four to seven days later when the average tumor volume was about 50-100 mm^3, mice were randomized into different experimental groups based on identical averaged (Mean±SEM) tumor volume and dosed with (i) vehicle and (ii) different doses of test compounds. For each involved tumor-bearing mouse, the tumor volume (mm^3) was measured using a caliper and calculated as follows: tumor volume=width^2×length/2. Test compounds were administered intravenously (tail vein) twice (two administrations 3 days apart) in conscious restrained tumor-bearing mice throughout the study. Individual tumor volume, body weight as well as clinical signs were recorded during the study. Each study was terminated on day 12 post-dosing initiation. […] For each experimental group and study day, the tumor volumes from all involved mice were averaged and expressed as Mean±SEM. […]

[2] = system: HT1080 human fibrosarcoma subcutaneous tumor xenograft; assay: Human fibrosarcoma tumor xenograft therapeutic model, tumor growth; assay type: in vivo, athymic nude mice; conditions: dosed at 0.6 to 3.0 mg/kg of cytotoxic payload component, intravenously twice 3 days apart, evaluated day 9
Experimental: as §1

[3] = system: HT1080 fibrosarcoma cells; assay: Cancer cell viability assay using human HT1080 fibrosarcoma cells; assay type: cell-based; conditions: four days incubation, reduction of viable cells, SDM as such
Experimental: Method: Plate cells one day prior to start of assay in 96 well black with clear bottom plates (Corning #3603), 2×10^4 cells per well in 100 μL of standard growth media (according to ATCC). Grow cells to 90% confluency.
Before start of assay rinse cells IX with DPBS. Add compounds in a 3-fold serial dilution in triplicate (range e.g. 8.1 μM-3.7 nM), 100 μL per well in standard growth media.
Incubate four days then assay cell viability as described below. Remove media and rinse IX with DPBS, then add 100 μL per well 10% Prestoblue Cell viability reagent (Thermo Fisher Scientific #A13261) in complete media. Return to incubator for two hours then read plate on SpectraMax M2e, bottom read excitation 555 emission 585 cut-off 570 which measures number of live cells. […] In most cases, SDMs were also tested in activated form by pre-treatment with protease that activates the compound. […] In Table 9 this is represented as ACT SDM-200.

SMILES | Tolerability (FIG. 3B) [1] | Weight loss (body weight normalized to day 1, FIG. 3B) [1] | Efficacy (percent tumor growth inhibition versus vehicle) [2] | EC50 [3]
[2H]C(=O)OCc1ccc(NC(=O)[C@H](CCCNC(N)=O)NC(=O)[C@@H](NC(=O)CCCCCN2C(=O)C=CC2=O)C(C)C)cc1 [SDM-155] | not tolerated | > 20% | – | –
[2H]CC(NC(=O)C(CCCNC(=N)N)NC(=O)[C@H](CCCNC(=N)N)NC(=O)[C@@H](CCCNC(=N)N)NC(=O)[C@H](CCCNC(=N)N)NC(=O)[C@@H](CCCNC(=N)N)NC(=O)[C@H](CCCNC(=N)N)NC(=O)[C@@H](CCCNC(=N)N)NC(=O)[C@H](CCCNC(=N)N)NC(=O)C(CO)NC(=O)[C@H](CCCNC(=N)N)NC(=O)[C@H](Cc1c[nH]c2ccccc12)NC(=O)C(CC(C)C)NC(=O)C(C)NC(=O)[C@H](CC(C)C)NC(=O)[C@@H]1CCCN1C(=O)[C@H](CCCNC(=N)N)NC(=O)COCCNC(=O)C(Cc1ccc(C(C)=O)cc1)NC(=O)[C@@H](CCC(=O)O)NC(=O)[C@@H](CCC(=O)O)NC(=O)[C@@H](CCC(=O)O)NC(=O)[C@@H](CCC(=O)O)NC(=O)[C@@H](CCC(=O)O)NC(=O)CCN1C(=O)C=CC1=O)C(N)=O (some centres unmarked) [SDM-173] | – | – | High (High: ≥80% inhibition) | –
CC[C@H](C)C([C@@H](CC(=O)N1CCCC1[C@H](OC)[C@@H](C)C(=O)N[C@@H](Cc1ccccc1)C(=O)O)OC)N(C)C(=O)[C@@H](NC(=O)[C@H](C(C)C)N(C)C(=O)CNC(=O)[C@H](CCCNC(N)=O)NC(=O)[C@@H](NC(=O)[C@H](Cc1ccc(/C(C)=N\OCCCCCC(=O)N[C@@H](CC(=O)O)C(=O)NC(CC2CCCCC2)C(=O)NC(Cc2ccccc2)C(=O)N[C@H](CO)C(=O)N[C@H](CCCNC(N)N)C(=O)N[C@@H](Cc2ccc(O)cc2)C(=O)N[C@@H](CC(C)C)C(=O)N[C@@H](Cc2c[nH]c3ccccc23)C(=O)N[C@@H](CO)C(N)=O)cc1)NC(=O)CCCCCN1C(=O)C=CC1=O)C(C)C)C(C)C (some centres unmarked) [SDM-185] | – | – | Medium (Medium: ≥29% inhibition to < 80% inhibition) | < 300 nM
